Experimental data: ChEMBL document CHEMBL5120764, “Isarubrolone C Promotes Autophagic Degradation of Virus Proteins via Activating ATG10S in HepG2 Cells” (J Nat Prod, 2022)
Activity calls are given as the source filed them.

Legend:
Format in all cases: functional, cell-based
HepG2 [1] = assay: Induction of autophagy in human HepG2 cells transfected with ZIKV-NS5 assessed as increase in ZIKV-NS5-LC3B interaction level at 10 uM incubated for 24 hrs in presence of anti-Flag antibodies by co-immunoprecipitation assay
HepG2 [2] = assay: Upregulation of HIV-RT in human HepG2 cells transfected with HIV-RT and gene knockdown by IL28A morpholinos at 10 uM incubated for 24 hrs by western blot analysis
HepG2 [3] = assay: Upregulation of endogenous ATG10S activated co-localisation of HBx with LAMP2 in human HepG2 cells co-transfected with HBx and ATG10-misMO by cellular immunofluorescence assay
HepG2 [4] = assay: Induction of autophagy in human HepG2 cells transfected with HIV-RT assessed as decrease in HIV-RT protein level upto 10 uM and measured after 6 hrs by western blot analysis; details: DDE = dose-dependent effect
HepG2 [5] = assay: Upregulation of endogenous ATG10S activated co-localisation of HCV-NS5B with LC3B in human HepG2 cells co-transfected with HCV sub-replicon and ATG10-misMO by cellular immunofluorescence assay
HepG2 [6] = assay: Induction of autophagy in human HepG2 cells assessed as increase in IL28A protein level upto 10 uM and measured after 6 hrs by western blot analysis; details: DDE = dose-dependent effect
HepG2 [7] = assay: Induction of autophagy in human HepG2 cells transfected with HCV subgenomic replicon assessed as HCV-NS5B/LC3B combination at 10 uM incubated for 24 hrs in presence of anti-LAMP2 antibodies by co-immunoprecipitation assay
HepG2 [8] = assay: Induction of autophagy in human HepG2 cells transfected with HIV-RT assessed as increase in HIV-RT-LAMP2 interaction level at 10 uM incubated for 24 hrs in presence of anti-Flag antibodies by co-immunoprecipitation assay
HepG2 [9] = assay: Upregulation of HCV-NS5B in human HepG2 cells transfected with HCV sub-replicon and gene knockdown by IL28A morpholinos at 10 uM incubated for 24 hrs by western blot analysis
HepG2 [10] = assay: Upregulation of endogenous ATG10S activated co-localisation of ZIKV-NS5 with LC3B in human HepG2 cells co-transfected with ZIKV-NS5 and ATG10-misMO by cellular immunofluorescence assay
HepG2 [11] = assay: Downregulation of HIV-RT in human HepG2 cells transfected with HIV-RT upto 10 uM incubated for 24 hrs by western blot analysis
HepG2 [12] = assay: Downregulation of HCV-NS5B in human HepG2 cells transfected with HCV-subreplicon upto 10 uM incubated for 24 hrs by western blot analysis
HepG2 [13] = assay: Upregulation of LC3B in human HepG2 cells transfected with ZIKV-NS5 and gene knockdown by IL28A morpholinos at 10 uM incubated for 24 hrs by western blot analysis
HepG2 [14] = assay: Upregulation of LC3B in human HepG2 cells transfected with HBx and gene knockdown by IL28A morpholinos at 10 uM incubated for 24 hrs by western blot analysis
HepG2 [15] = assay: Upregulation of endogenous ATG10S activated co-localisation of HCV-NS5B with LAMP2 in human HepG2 cells co-transfected with HCV sub-replicon and ATG10-misMO by cellular immunofluorescence assay
HepG2 [16] = assay: Downregulation of ZIKV-NS5 in human HepG2 cells transfected with ZIKV-NS5 upto 10 uM incubated for 24 hrs by western blot analysis
HepG2 [17] = assay: Induction of autophagy in human HepG2 cells transfected with HCV sub-replicon assessed as decrease in HCV-NS5B protein level upto 10 uM and measured after 6 hrs by western blot analysis; details: DDE = dose-dependent effect
HepG2 [18] = assay: Induction of autophagy in human HepG2 cells transfected with HBV-X and gene knockdown by IL28A morpholinos assessed as LC3B and LAMP2 interaction at 10 uM incubated for 24 hrs in presence of anti-LC3B antibodies by co-immunoprecipitation assay
HepG2 [19] = assay: Upregulation of ATG10/ATG10S mRNA level in human HepG2 cells transfected with ZIKV-NS5 upto 10 uM by RT-PCR analysis; details: DDE = dose-dependent effect
HepG2 [20] = assay: Induction of autophagy in human HepG2 cells transfected with HCV subgenomic replicon assessed as HCV-NS5B/LAMP2 combination at 10 uM incubated for 24 hrs in presence of anti-LC3B antibodies by co-immunoprecipitation assay
HepG2 [21] = assay: Downregulation of HCV-CORE in human HepG2 cells transfected with HCV-subreplicon upto 10 uM incubated for 24 hrs by western blot analysis
HepG2 [22] = assay: Induction of autophagy in human HepG2 cells transfected with ZIKV-NS5 and gene knockdown by IL28A morpholinos assessed as LC3B and LAMP2 interaction at 10 uM incubated for 24 hrs in presence of anti-LC3B antibodies by co-immunoprecipitation assay
HepG2 [23] = assay: Upregulation of IL28A mRNA expression level in human HepG2 cells transfected with HCV sub-replicon upto 10 uM by qRT-PCR analysis; details: DDE = dose-dependent effect
HepG2 [24] = assay: Induction of autophagy in human HepG2 cells transfected with HBx assessed as decrease in HBx protein level upto 10 uM and measured after 6 hrs by western blot analysis; details: DDE = dose-dependent effect
HepG2 [25] = assay: Upregulation of ATG10/ATG10S mRNA level in human HepG2 cells transfected with HIV-RT upto 10 uM by RT-PCR analysis; details: DDE = dose-dependent effect
HepG2 [26] = assay: Effect on HCV-CORE degradation in human HepG2 cells transfected with HCV sub-replicon at 10 uM pretreated with proteosome inhibitor MG132 for 12 hrs followed by compound addition and measured after 24 hrs by western blot analysis
HepG2 [27] = assay: Induction of autophagy in human HepG2 cells transfected with HCV sub-replicon assessed as decrease in HCV-CORE protein level upto 10 uM and measured after 6 hrs by western blot analysis; details: DDE = dose-dependent effect
HepG2 [28] = assay: Induction of autophagy in human HepG2 cells assessed as […] in LC3B marker expression level upto 10 uM and measured after 6 hrs by western blot analysis; details: DDE = dose-dependent effect
HepG2 [29] = assay: Upregulation of endogenous ATG10S activated co-localisation of ZIKV-NS5 with LC3B in human HepG2 cells co-transfected with ZIKV-NS5 and ATG10-sMO by cellular immunofluorescence assay
HepG2 [30] = assay: Induction of autophagy in human HepG2 cells co-transfected with ZIKV-NS5 assessed as decrease in ZIKV-NS5 protein level upto 10 uM and measured after 6 hrs by western blot analysis; details: DDE = dose-dependent effect
HepG2 [31] = assay: Upregulation of endogenous ATG10S activated co-localisation of HBx with LAMP2 in human HepG2 cells co-transfected with HBx and ATG10-sMO by cellular immunofluorescence assay
HepG2 [32] = assay: Downregulation of HCV-NS5B in human HepG2 cells co-transfected with HCV-subreplicon and ATG10-misMO upto 10 uM incubated for 24 hrs by western blot analysis
HepG2 [33] = assay: Effect on HIV-RT degradation in human HepG2 cells transfected with HIV-RT at 10 uM pretreated with proteosome inhibitor MG132 for 12 hrs followed by compound addition and measured after 24 hrs by western blot analysis

Measured: Activity

CC[C@@H](O)c1nc(C)cc2c1C(=O)c1cc(=O)c3c(c(O)c1-2)O[C@@H]1O[C@H](C)[C@@H](OC)[C@@H](O)[C@]31O
active: HepG2 [1] | HepG2 [2] | HepG2 [3] | HepG2 [4] Dde | HepG2 [5] | HepG2 [6] Dde | HepG2 [7] | HepG2 [8] | HepG2 [9] | HepG2 [10] | HepG2 [11] | HepG2 [12] | HepG2 [13] | HepG2 [14] | HepG2 [15] | HepG2 [16] | HepG2 [17] Dde | HepG2 [18] | HepG2 [19] Dde | HepG2 [20] | HepG2 [21] | HepG2 [22] | HepG2 [23] Dde | HepG2 [24] Dde | HepG2 [25] Dde | HepG2 [26] | HepG2 [27] Dde | HepG2 [28] Dde | HepG2 [29] | HepG2 [30] Dde | HepG2 [31] | HepG2 [32] | HepG2 [33]
